The target of test [1] is T1, dopamine D2 receptors (Homo sapiens (Human), UniProt P14416). The test can be described thus: β-arrestin2 recruitment BRET, dopamine D2 receptor functional activity. The class given is cell-based. The note with it: for EC50: HEK-293T, I-1 to 19 n=3, I-20 to 27 single determination, read-out: β-arrestin2 BRET EC50; for Emax: read-out: β-arrestin2 BRET Emax % ± SEM. How it is done: To examine the downstream f3-arrestin2 signaling pathway mediated by dopamine D2 receptors, 6 cm dish was used for transfection with 500 […] of dopamine D2 receptors fused to seaweed luciferase (D2-Rluc), 500 μg of G protein-coupled receptor kinase 2 (GRK2), 2500 μg of β-arrestin2 fused to green fluorescent protein (GFP2-ARRB2) and 14 μL of transfection reagent PEI. The next day, the overgrown cells were digested and plated a 96-well plate at the amount of cells contained in a 6 cm culture dish with overgrown cells, and 100 μL of culture medium was added to each well. On the third day, the drugs were added for test.
(§1) To examine downstream G-protein signaling pathway mediated by dopamine D2 receptors, on the first day, 6 cm dish was used for transfection with 1μg of dopamine D2 receptors, 1μg of Gαi1 containing C-terminal seaweed luciferase (GGαi1-Rluc), 1 μg of […], 1 μg of Gγ9 containing C-terminal green fluorescent protein (Gγ9-GFP) and 16 μL of PEI. At the same time, in order to examine the downstream f3-arrestin2 signaling pathway mediated by dopamine D2 receptors, on the first day, 6 cm dish was used for transfection with 500 μg of dopamine D2 receptors containing C-terminal seaweed luciferase (D2-Rluc), 500 μg of G protein-coupled receptor kinase 2 (GRK2), 2500 μg of […] containing N-terminal green fluorescent protein (GFP2-ARRB2) and 14 μL of PEI. The next day, the overgrown cells were digested and plated a 96-well plate at the amount of cells contained in a 6 cm culture dish with overgrown cells, and 100 μL of culture medium was added to each well. On the third day, the drugs were added for test. The 96-well plate was taken out from the cell culture room to remove the culture medium, 40 μL of the substrate coelenterazine 400a (final concentration of 5 μM) was added to each well, and then 20 μL of different drugs were added in turn from left to right to ensure that the final concentration of the drugs decreased gradually from bottom to top, and each treatment was repeated twice. Finally, the prepared samples were loaded on machine for test. The machine reading value reflected the intracellular β-arrestin2 on the membrane and the dissociation of G protein trimer. The former indicated the degree of activation of the β-arrestin2 signaling pathway downstream of the dopamine D2 receptors, and the latter indicated the degree of activation of the G protein signaling pathway downstream of the dopamine D2 receptors.
For orientation: Activated receptors often draw arrestin, which recruitment assays turn into a signal.

Test [2] addresses T1, dopamine D2 receptors. The test can be described thus: Radioligand competition binding, affinity for dopamine D2 receptors ([3H]-Methylspiperone). Particulars: [3H]-Methylspiperone (0.3-0.5 nM), HEK-293T membranes; for Ki: I-1 to 19 n=3, I-20 to 27 single determination; for Affinity pKi ± SEM: n=3. Here is the method:
A 10 cm diameter dish was used for transfection with 10 ng of the dopamine D2 receptors and 40 μL of PEI. After 48 hours, the 10 cm dish was taken out from the cell culture room and the cultured cells had expressed the dopamine D2 receptors. A vacuum pump was used to suck off the culture medium, 3 mL of lysis buffer (50 mM Tris hydrochloric acid buffer, pH 7.4) was added to each well, and the cells were placed in a 4° C. freezer for 10 minutes. After the cells were detached, the cells were transferred to a 15 mL centrifuge tube and centrifuged at 1500 rpm for 5 minutes at 4° C., and the supernatant was discarded. The cell pellet was transferred to a tissue homogenizer, and 3 mL of lysis buffer was added and fully ground until the cells were broken. Then, cell suspension was equally divided into several EP tubes, centrifuged at 4° C. and 12000 rpm for 5 min, and the supernatant was discarded. The precipitate was the cell membrane component containing the dopamine D2 receptors and stored at −80° C.
First, a standard binding buffer (50 mM HEPES, 50 mM NaCl, 5 mM MgCl2, 0.5 mM EDTA, pH 7.4) was added to the cell membrane component containing the dopamine D2 receptors, and the cell membrane was disrupted and resuspended with an electric tissue homogenizer. 30 μL of membrane protein suspension was added to each well of a 96-well plate. Then, 30 μL of different drugs were added to the 96-well plate from left to right to ensure that the final drug concentrations were 10^−5 M, 10^−6 M, 10^−7 M, 10^−8 M, 10^−9 M and 0 M, with two replicates per treatment. Next, 30 μL [^3H]-N-Methylspiperone was added to each well of the 96-well plate, and the plate was incubated for 2 hours at room temperature in the dark. The unbound isotopes were removed by Whatman GF/C filter membrane and vacuum pump, and the isotopes bound to the receptors were detected by MicroBeta isotope liquid scintillation counter.
The affinity of the compounds of the present invention for the dopamine D2 receptors was determined by the method of radioligand competition experiment. In the first step, a cell membrane component containing specific dopamine D2 receptors was prepared. A10 cm dish was used for transfection with 10 ng of the dopamine D2 receptors and 40 μL of PEI. After 48 hours, the 10 cm dish was taken out from the cell culture room and the cultured cells had expressed the dopamine D2 receptors. A vacuum pump was used to suck off the culture medium, 3 mL of lysis buffer was added to each well, and the cells were placed in a 4° C. freezer for 10 minutes. After the cells were detached, the cells were transferred to a 15 mL centrifuge tube and centrifuged at 1500 rpm for 5 minutes at 4° C., and the supernatant was discarded. The cell pellet was transferred to a tissue homogenizer, and 3 mL of lysis buffer was added and fully ground until the cells were broken. Then, cell suspension was equally divided into several EP tubes, centrifuged at 4° C. and 12000 rpm for 5 min, and the supernatant was discarded. The precipitate was the cell membrane component containing the dopamine D2 receptors. […] First, a standard binding buffer was added to the cell membrane component containing the dopamine D2 receptors, and the cell membrane was disrupted and resuspended with an electric tissue homogenizer. 30 μL of membrane protein suspension was added to each well of a 96-well plate. Then, 30 μL of different drugs were added to the 96-well plate from left to right to ensure that the final drug concentrations were 10^−5 M, 10^−6 M, 10^−7 M, 10^−8 M, 10^−9 M and 0 M, with two replicates per treatment. Next, 30 μL [^3H]-Methylspiperone was added to each well of the 96-well plate. The plate was incubated for 2 hours at room temperature in the dark. Detection. The machine reading value reflected the amount of [^3H]-Methylspiperone bound on the membrane, and after further data processing, the affinity Ki value of different compounds for dopamine D2 receptors was obtained.
A general note: Loss of bound radioactivity is the signal in a displacement assay; it reports binding, not function.

Test [3] addresses T1, dopamine D2 receptors. The test can be described thus: G protein Gαi1-γ9 dissociation BRET, dopamine D2 receptor functional activity. The class given is cell-based. The note with it: for EC50: HEK-293T, I-1 to 19 n=3, I-20 to 27 single determination, read-out: Gai1 BRET EC50; for Emax: read-out: Gai1 BRET Emax % ± SEM. How it is done:
To examine downstream G protein signaling mediated by dopamine D2 receptors, 6 cm dish was used for transfection with 1μg of dopamine D2 receptors, 1μg of Gαi1 fused to seaweed luciferase (Gαi1-Rluc), 1 μg of Gβ3, 1 μg of Gγ9 fused to green fluorescent protein (Gγ9-GFP) and 16 μL of transfection reagent PEI. […] On the third day, the drugs were added for test.
as §1
A general note: BRET reads energy transfer from a luciferase to a nearby fluorophore.

Where [4] appears, read: relative to the endogenous ligand dopamine.

In general, EC50 refers to the concentration that produces a half-maximal response. The Emax is the maximal effect, on the per cent scale that the assay sets. A word on the Ki: it is the dissociation constant of the complex between target and ligand, obtained from inhibition or displacement. A lower Ki goes with tighter binding.

The structures appear in SMILES notation.

T1 sequence (P14416 whole entry, the tested form may be a part): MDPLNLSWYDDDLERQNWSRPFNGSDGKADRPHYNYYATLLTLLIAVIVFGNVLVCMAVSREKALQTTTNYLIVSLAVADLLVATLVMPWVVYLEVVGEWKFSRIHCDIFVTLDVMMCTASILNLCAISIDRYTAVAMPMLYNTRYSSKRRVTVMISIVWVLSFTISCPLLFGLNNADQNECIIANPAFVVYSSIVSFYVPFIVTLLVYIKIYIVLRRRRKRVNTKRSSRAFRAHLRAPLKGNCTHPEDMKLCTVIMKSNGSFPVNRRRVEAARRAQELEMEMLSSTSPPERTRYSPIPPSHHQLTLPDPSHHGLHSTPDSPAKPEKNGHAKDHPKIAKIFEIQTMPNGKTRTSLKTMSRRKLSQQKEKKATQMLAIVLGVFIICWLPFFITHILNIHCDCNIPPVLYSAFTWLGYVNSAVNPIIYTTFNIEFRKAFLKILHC

Take `Cn1cc2c3c(cccc31)N1CCN(C/C=C/COc3ccc4ccc(=O)[nH]c4c3)CC1C2` (stereo not shown) [Compound I-23, (E)-7-((4-(4-methyl-4,6,6a,7,9,10-hexahydro-8H-pyrazino[1,2-a]pyrrolo[4,3,2-de]quinolin-8-yl)-2-buten-1-yl)oxy)quinolin-2(1H)-one]: the EC50 in test [1] turned out to be 0.294 µM; in test [3], 0.0548 µM. Besides, the Emax in test [1] (setting [4]) worked out at 36%; in test [3] (setting [4]), 38%. In addition, the Ki in test [2] was 0.101 µM.
In the case of `O=c1ccc2ccc(OCCCN3CCN4c5cccc6[nH]cc(c56)CC4C3)cc2[nH]1` (stereo not shown) [Compound I-8, 7-(3-(4,6,6a,7,9,10-hexahydro-8H-pyrazino[1,2-a]pyrrolo[4,3,2-de]quinolin-8-yl)propoxy)quinolin-2(1H)-one], the concentration giving a half-maximal response (EC50) stood at 0.11 µM in test [1] and 0.0389 µM in test [3]. For the same compound, the maximal response (Emax) is 98% in test [1] (setting [4]) and 94% in test [3] (setting [4]). Further, in test [2], affinity was put at a Ki of 0.00049 µM. Moreover, the “Affinity pKi ± SEM” value in test [2] was “(9.31 ± 0.15)”.
`O=C(N[C@H]1CC[C@H](CCN2CCN3c4cccc5[nH]cc(c45)CC3C2)CC1)c1cc2ccccc2[nH]1` (stereo partly shown) [Compound I-13]: in test [1], the concentration giving a half-maximal response (EC50) came to 0.146 µM. Further, the “β-arrestin2 BRET pEC50 ± SEM” value in test [1] (n=3) amounted to 6.84 ± 0.12. Further, the “β-arrestin2 BRET Emax % ± SEM” value in test [1] (setting [4]) was 48 ± 8%. Moreover, in test [2], the affinity corresponds to a Ki of 0.0163 µM and the “Affinity pKi ± SEM” value is recorded as “(7.79 ± 0.07)”. The concentration for a half-maximal effect (EC50) in test [3] worked out at 0.00674 µM. Also, the “Gai1 BRET pEC50 ± SEM” value in test [3] (n=3) worked out at 8.17 ± 0.08. In addition, the “Gai1 BRET Emax % ± SEM” value in test [3] (setting [4]) came to 92 ± 3%.
`Cn1cc2c3c(cccc31)N1CCN(CCCCOc3ccc4ccc(=O)[nH]c4c3)CC1C2` (stereo not shown) [Compound I-18, 7-(4-(4-methyl-4,6,6a,7,9,10-hexahydro-8H-pyrazino[1,2-a]pyrrolo[4,3,2-de]quinolin-8-yl)butoxy)quinolin-2(1H)-one]: the values for the EC50 in test [1] and in test [3] were 0.11 µM and 0.011 µM, respectively. In addition, the Emax is 50% in test [1] (setting [4]) and 77% in test [3] (setting [4]). This compound also registered a Ki in test [2] of 0.061 µM. For the same compound, the “Affinity pKi ± SEM” value in test [2] is given as “(7.22 ± 0.02)”.
Turning to `Cc1noc2cc(OCCCCN3CCN4c5cccc6[nH]cc(c56)CC4C3)ccc12` (stereo not shown) [Compound I-5, 6-(4-(4,6,6a,7,9,10-hexahydro-8H-pyrazino[1,2-a]pyrrolo[4,3,2-de]quinolin-8-yl)butoxy)-3-methylbenzo[d] is oxazole], the concentration giving a half-maximal response (EC50) in test [1] was 0.054 µM; in test [3] it was 0.00744 µM. Further, the Emax in test [1] (setting [4]) worked out at 61%; in test [3] (setting [4]), 83%. The same compound gave an inhibition constant (Ki) in test [2] of 0.0371 µM. Besides, the “Affinity pKi ± SEM” value in test [2] was “(7.43 ± 0.09)”.
Consider `O=C(N[C@H]1CC[C@H](CCN2CCN3c4cccc5[nH]cc(c45)CC3C2)CC1)c1ccccc1` (stereo partly drawn) [Compound I-14, N-(4-(2-(4,6,6a,7,9,10-hexahydro-8H-pyrazino[1,2-a]pyrrolo[4,3,2-de]quinolin-8-yl)ethyl)trans-cyclohexyl)benzamide], for which the results for the EC50 in test [1] and in test [3] were 0.0277 µM and 0.00167 µM, respectively. In addition, the figures for the Emax in test [1] (setting [4]) and in test [3] (setting [4]) were 41% and 72%, respectively. In test [2], this compound gave an inhibition constant (Ki) of 0.0407 µM. In addition, the “Affinity pKi ± SEM” value in test [2] is recorded as “(7.39 ± 0.05)”.
